Each compound was assayed against T1, TRPML1 (Homo sapiens, UniProt Q9GZU1) (assay: Cellular TRPML1 assay (FLIPR, GCaMP6f calcium read-out)). Settings: HEKT-REx/GCaMP6f/TRPML1 cells, FLIPR TETRA, kinetic response over 300 seconds; read-out: TRPML1 FLIPR pEC50 (converted).
T1 construct: expressed in transfected cells; host or cells: HEK T-REx cells stably expressing GCaMP6f and TRPML1
Format: cell-based
Summary of the method: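 HEK T-REx cells stably expressing TRPML1 and GCaMP6f, seeded 24 h before in Optimem + 0.5% FBS. After ~10 min pre-incubation at room temperature, compounds in Ca2+-free Tyrode's buffer were injected on FLIPR Tetra (final DMSO 0.5%). Calcium fluorescence kinetics followed for 300 s.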

T1 sequence (Q9GZU1 whole entry): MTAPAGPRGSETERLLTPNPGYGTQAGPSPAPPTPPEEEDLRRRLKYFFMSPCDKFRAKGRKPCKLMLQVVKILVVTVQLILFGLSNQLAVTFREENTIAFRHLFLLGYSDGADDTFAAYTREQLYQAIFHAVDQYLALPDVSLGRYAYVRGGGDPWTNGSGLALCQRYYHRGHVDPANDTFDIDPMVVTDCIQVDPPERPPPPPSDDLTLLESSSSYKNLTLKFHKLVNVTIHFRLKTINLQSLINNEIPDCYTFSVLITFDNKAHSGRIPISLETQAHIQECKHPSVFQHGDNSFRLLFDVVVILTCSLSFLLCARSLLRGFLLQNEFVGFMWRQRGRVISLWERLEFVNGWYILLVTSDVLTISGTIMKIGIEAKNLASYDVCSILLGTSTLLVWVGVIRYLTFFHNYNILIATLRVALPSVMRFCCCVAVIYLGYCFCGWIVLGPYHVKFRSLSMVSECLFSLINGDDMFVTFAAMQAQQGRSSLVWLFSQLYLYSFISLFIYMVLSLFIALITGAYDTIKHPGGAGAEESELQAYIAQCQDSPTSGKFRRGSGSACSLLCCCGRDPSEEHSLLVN

Structure (SMILES) | EC50 [µM]
CCc1oc(N2CC(CC)(CO)C2)nc1C(=O)Nc1cc(F)c(O[C@@H]2C[C@@H]3C[C@@H]3C2)c(Cl)c1 [Example 220, N-(4-(cis-bicyclo[3.1.0]hexan-3-yloxy)-3-chloro-5-fluorophenyl)-5-ethyl-2-(3-ethyl-3-(hydroxymethyl)azetidin-1-yl)oxazole-4-carboxamide] | 0.01 to 1
CCc1oc(N2CC(C)(OC)C2)nc1C(=O)Nc1cc(C)c(O[C@@H]2C[C@@H]3C[C@@H]3C2)c(F)c1 [Example 226, N-(4-(cis-bicyclo[3.1.0]hexan-3-yloxy)-3-fluoro-5-methylphenyl)-5-ethyl-2-(3-methoxy-3-methylazetidin-1-yl)oxazole-4-carboxamide] | 0.01 to 1
CCc1oc(-n2cccn2)nc1C(=O)Nc1cc(F)c(O[C@@H]2C[C@@H]3C[C@@H]3C2)c(F)c1 [Example 232, N-(4-(cis-bicyclo[3.1.0]hexan-3-yloxy)-3,5-difluorophenyl)-5-ethyl-2-(1H-pyrazol-1-yl)oxazole-4-carboxamide] | 1 to 10
CCc1oc(N2CC(CC)(OC)C2)nc1C(=O)Nc1cc(F)c(OC2CCOC2)c(F)c1 (stereo not drawn) [Example 234, N-(3,5-difluoro-4-((tetrahydrofuran-3-yl)oxy)phenyl)-5-ethyl-2-(3-ethyl-3-methoxyazetidin-1-yl)oxazole-4-carboxamide] | 1 to 10
CCc1oc(N2CC3COCC3C2)nc1C(=O)Nc1cc(F)c(OC2CC3C[C@H]3C2)c(F)c1 (stereo partly drawn) [Example 237, N-(4-(cis-bicyclo[3.1.0]hexan-3-yloxy)-3,5-difluorophenyl)-5-ethyl-2-(tetrahydro-1H-furo[3,4-c]pyrrol-5(3H)-yl)oxazole-4-carboxamide] | 0.01 to 1
CCc1oc(N2CC(CC)(CC)C2)nc1C(=O)Nc1cc(F)c(O[C@@H]2C[C@@H]3C[C@@H]3C2)c(F)c1 [Example 243, N-(4-(cis-bicyclo[3.1.0]hexan-3-yloxy)-3,5-difluorophenyl)-2-(3,3-diethylazetidin-1-yl)-5-ethyloxazole-4-carboxamide] | 0.01 to 1
CCc1oc(N2CC(CC)(OC)C2)nc1C(=O)Nc1ccc(O[C@@H]2C[C@@H]3C[C@@H]3C2)c(F)c1 [Example 246, N-(4-(cis-bicyclo[3.1.0]hexan-3-yloxy)-3-fluorophenyl)-5-ethyl-2-(3-ethyl-3-methoxyazetidin-1-yl)oxazole-4-carboxamide] | 0.01 to 1
CCc1oc(N2CC(C)(OC)C2)nc1C(=O)Nc1ccc(O[C@@H]2C[C@@H]3C[C@@H]3C2)c(C)c1 [Example 248, N-(4-(cis-bicyclo[3.1.0]hexan-3-yloxy)-3-methylphenyl)-5-ethyl-2-(3-methoxy-3-methylazetidin-1-yl)oxazole-4-carboxamide] | 1 to 10
CCc1oc(N2CC(CC)(OC)C2)nc1C(=O)Nc1ccc(O[C@@H]2C[C@@H]3C[C@@H]3C2)c(F)c1F [Example 250] | 10 to 100
CCc1oc(N2CC(CC)(OC)C2)nc1C(=O)Nc1cc(F)c(O[C@@H]2C[C@@H]3C[C@@H]3C2)cc1F [Example 251, N-(4-(cis-bicyclo[3.1.0]hexan-3-yloxy)-2,5-difluorophenyl)-5-ethyl-2-(3-ethyl-3-methoxyazetidin-1-yl)oxazole-4-carboxamide] | 1 to 10
CCc1oc(N2CC(CC)(CC)C2)nc1C(=O)Nc1cc(C)c(NC2CC3CC(C3)C2)c(F)c1 (stereo not drawn) [Example 253, N-(4-(bicyclo[3.1.1]heptan-3-ylamino)-3-fluoro-5-methylphenyl)-2-(3,3-diethylazetidin-1-yl)-5-ethyloxazole-4-carboxamide] | 1 to 10
CCc1oc(N2CC3COCC3C2)nc1C(=O)Nc1cc(F)c(N2CC3CC(C3)C2)c(F)c1 (stereo not drawn) [Example 257, N-(4-(3-azabicyclo[3.1.1]heptan-3-yl)-3,5-difluorophenyl)-5-ethyl-2-(tetrahydro-1H-furo[3,4-c]pyrrol-5(3H)-yl)oxazole-4-carboxamide] | 1 to 10
CCc1oc(N2CC(C)(OC)C2)nc1C(=O)Nc1cc(F)c(N2CC3CC(C3)C2)c(F)c1 [Example 258, N-(4-(3-azabicyclo[3.1.1]heptan-3-yl)-3,5-difluorophenyl)-5-ethyl-2-(3-methoxy-3-methylazetidin-1-yl)oxazole-4-carboxamide] | 1 to 10

Second part, the compound after the results:

EC50 [µM] | Structure (SMILES)
0.01 to 1 | CC1(C)CCCN(c2c(F)cc(NC(=O)c3nc(N4CCCC4)oc3CC(F)(F)F)cc2F)C1 [Example 213, N-(4-(3,3-dimethylpiperidin-1-yl)-3,5-difluorophenyl)-2-(pyrrolidin-1-yl)-5-(2,2,2-trifluoroethyl)oxazole-4-carboxamide]
0.01 to 1 | O=C(Nc1cc(F)c(N2CCC3CCCC32)c(F)c1)c1nc(N2CCCC2)oc1CC(F)(F)F (stereo not drawn) [Example 214, N-(3,5-difluoro-4-(hexahydrocyclopenta[b]pyrrol-1(2H)-yl)phenyl)-2-(pyrrolidin-1-yl)-5-(2,2,2-trifluoroethyl)oxazole-4-carboxamide]
0.01 to 1 | CCC1(CC)CN(c2nc(C(=O)Nc3cc(F)c(N4CCCCC4)c(F)c3)c(CC(F)(F)F)o2)C1 [Example 215, 2-(3,3-diethylazetidin-1-yl)-N-(3,5-difluoro-4-(piperidin-1-yl)phenyl)-5-(2,2,2-trifluoroethyl)oxazole-4-carboxamide]
0.01 to 1 | CCC1(CC)CN(c2nc(C(=O)Nc3ccc(N4CCCCC4)c(F)c3)c(CC(F)(F)F)o2)C1 [Example 216, 2-(3,3-diethylazetidin-1-yl)-N-(3-fluoro-4-(piperidin-1-yl)phenyl)-5-(2,2,2-trifluoroethyl)oxazole-4-carboxamide]
10 to 100 | Cc1cc(NC(=O)c2nc(N3CCCC3)oc2CC(F)(F)F)cc(F)c1N(C)C1CC2CC(C2)C1 (stereo not drawn) [Example 217, N-(4-(bicyclo[3.1.1]heptan-3-yl(methyl)amino)-3-fluoro-5-methylphenyl)-2-(pyrrolidin-1-yl)-5-(2,2,2-trifluoroethyl)oxazole-4-carboxamide]
10 to 100 | O=C(Nc1cc(F)c(CN2CC3CC3C2)c(F)c1)c1nc(N2CCCC2)oc1CC(F)(F)F (stereo not drawn) [Example 218, N-(4-{3-azabicyclo [3.1.0]hexan-3-ylmethyl}-3,5-difluorophenyl)-2-(pyrrolidin-1-yl)-5-(2,2,2-trifluoroethyl)-1,3-oxazole-4-carboxamide]
0.01 to 1 | CCc1oc(N2CCCC2)nc1C(=O)Nc1cc(F)c(O[C@@H]2C[C@@H]3C[C@@H]3C2)c(Cl)c1 [Example 222, N-(4-(cis-bicyclo[3.1.0]hexan-3-yloxy)-3-chloro-5-fluorophenyl)-5-ethyl-2-(pyrrolidin-1-yl)oxazole-4-carboxamide]
1 to 10 | CCc1oc(N2CCCOCC2)nc1C(=O)Nc1cc(F)c(O[C@@H]2C[C@@H]3C[C@@H]3C2)c(F)c1 [Example 231, N-(4-(cis-bicyclo[3.1.0]hexan-3-yloxy)-3,5-difluorophenyl)-5-ethyl-2-(1,4-oxazepan-4-yl)oxazole-4-carboxamide]
1 to 10 | CCc1oc(N2CC3CCOC3C2)nc1C(=O)Nc1cc(F)c(OC2CC3C[C@H]3C2)c(F)c1 (stereo partly drawn) [Example 233, N-(4-(cis-bicyclo[3.1.0]hexan-3-yloxy)-3,5-difluorophenyl)-5-ethyl-2-(hexahydro-5H-furo[2,3-c]pyrrol-5-yl)oxazole-4-carboxamide]
0.01 to 1 | CCc1oc(N2CC(CC)(CC)C2)nc1C(=O)Nc1cc(F)c(OC2CCCOC2)c(F)c1 (stereo not drawn) [Example 236, 2-(3,3-diethylazetidin-1-yl)-N-(3,5-difluoro-4-((tetrahydro-2H-pyran-3-yl)oxy)phenyl)-5-ethyloxazole-4-carboxamide]
0.01 to 1 | CCc1oc(N2CCCCCC2)nc1C(=O)Nc1cc(F)c(O[C@@H]2C[C@@H]3C[C@@H]3C2)c(F)c1 [Example 242, 2-(azepan-1-yl)-N-(4-(cis-bicyclo[3.1.0]hexan-3-yloxy)-3,5-difluorophenyl)-5-ethyloxazole-4-carboxamide]
1 to 10 | CCc1oc(N2CCCC2)nc1C(=O)Nc1cc(C)c(NC2CC3CC(C3)C2)c(F)c1 (stereo not drawn) [Example 252, N-(4-(bicyclo[3.1.1]heptan-3-ylamino)-3-fluoro-5-methylphenyl)-5-ethyl-2-(pyrrolidin-1-yl)oxazole-4-carboxamide]
0.01 to 1 | COC1(C)CN(c2nc(C(=O)Nc3cc(C)c(O[C@@H]4C[C@@H]5C[C@@H]5C4)c(O)c3)c(CC(F)(F)F)o2)C1 [Example 263, N-(4-(cis-bicyclo[3.1.0]hexan-3-yloxy)-3-hydroxy-5-methylphenyl)-2-(3-methoxy-3-methylazetidin-1-yl)-5-(2,2,2-trifluoroethyl)oxazole-4-carboxamide]
1 to 10 | COC1(C)CN(c2nc(C(=O)Nc3cc(O)c(OC4CC5CC(C5)C4)c(F)c3)c(CC(F)(F)F)o2)C1 (stereo not drawn) [Example 265, N-(4-(bicyclo[3.1.1]heptan-3-yloxy)-3-fluoro-5-hydroxyphenyl)-2-(3-methoxy-3-methylazetidin-1-yl)-5-(2,2,2-trifluoroethyl)oxazole-4-carboxamide]
1 to 10 | CCC1(OC)CN(c2nc(C(=O)Nc3cc(O)c(OC4CC5CC(C5)C4)c(F)c3)c(CC(F)(F)F)o2)C1 (stereo not drawn) [Example 266, N-(4-(bicyclo[3.1.1]heptan-3-yloxy)-3-fluoro-5-hydroxyphenyl)-2-(3-ethyl-3-methoxyazetidin-1-yl)-5-(2,2,2-trifluoroethyl)oxazole-4-carboxamide]
1 to 10 | COC1(C)CN(c2nc(C(=O)Nc3cc(O)c(O[C@@H]4C[C@@H]5C[C@@H]5C4)c(F)c3)c(CC(F)(F)F)o2)C1 [Example 267, N-(4-(cis-bicyclo[3.1.0]hexan-3-yloxy)-3-fluoro-5-hydroxyphenyl)-2-(3-methoxy-3-methylazetidin-1-yl)-5-(2,2,2-trifluoroethyl)oxazole-4-carboxamide]
1 to 10 | CCC1(OC)CN(c2nc(C(=O)Nc3cc(O)c(O[C@@H]4C[C@@H]5C[C@@H]5C4)c(F)c3)c(CC(F)(F)F)o2)C1 [Example 268, N-(4-(cis-bicyclo[3.1.0]hexan-3-yloxy)-3-fluoro-5-hydroxyphenyl)-2-(3-ethyl-3-methoxyazetidin-1-yl)-5-(2,2,2-trifluoroethyl)oxazole-4-carboxamide]

From US12098145B2 (Libra Therapeutics, Inc., priority 2022, dated 2024)
